One test addresses T1, hpol κ (Homo sapiens, UniProt Q9UBT6).
T1 sequence (Q9UBT6 19-526): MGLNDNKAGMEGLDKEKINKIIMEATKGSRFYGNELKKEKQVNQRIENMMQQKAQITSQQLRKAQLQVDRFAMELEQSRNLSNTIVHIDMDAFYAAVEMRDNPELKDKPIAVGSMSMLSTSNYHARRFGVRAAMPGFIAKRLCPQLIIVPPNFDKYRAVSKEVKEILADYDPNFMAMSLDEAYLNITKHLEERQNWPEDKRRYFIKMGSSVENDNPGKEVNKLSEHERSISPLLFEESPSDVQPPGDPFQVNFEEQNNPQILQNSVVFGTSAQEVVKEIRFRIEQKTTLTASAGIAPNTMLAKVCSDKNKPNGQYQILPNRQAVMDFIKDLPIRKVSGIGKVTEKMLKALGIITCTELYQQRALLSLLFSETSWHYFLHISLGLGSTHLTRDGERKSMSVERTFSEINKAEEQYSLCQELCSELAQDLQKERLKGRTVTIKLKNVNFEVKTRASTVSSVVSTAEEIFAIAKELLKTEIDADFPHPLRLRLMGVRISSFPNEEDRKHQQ
The experiment in a line: Fluorescence-based (TAMRA/BHQ strand displacement) DNA polymerase activity assay. To be noted: for activity at 40 µM: read-out: % Activity Mean (hpol κ activity).

Test [1] has as its system hpol κ-deficient HAP-1 cells. Briefly: Clonogenic survival assay. The test is classed as cell-based, human. To be noted: 250 μM TMZ. The procedure:
(§1) HAP-1 and hpol κ^KO cells were purchased from Horizons Discovery Group LLC (Cambridge, UK). The company generated the Hap1 cells using CRISPR-Cas9 technology and the elimination of kappa expression was confirmed by Sanger sequence genome editing. We further confirmed the elimination of hpol κ protein expression by Western blotting (data not shown). Hap1 cells were cultured in Iscove's modified Dulbecco's medium (IMDM; Invitrogen, CA, USA) supplemented with 10% (v/v) fetal bovine serum (FBS; Atlas Biologicals, CO, USA) and 1% (v/v) antibiotic/antimycotic solution (Sigma-Aldrich, MO, USA).T98G cells were purchased from ATCC (American Type Culture Collection, VA, USA). T98G cells were cultured in MEM (Minimum Essential Medium) (Invitrogen, CA, USA) supplemented with 10% (v/v) FBS (Fetal Bovine Serum, Atlas Biologicals, CO, USA) and antibiotic/antimycotic solution (1%, v/v) (Sigma-Aldrich, MO, USA). NT2 cells were kindly provided by Dr. Michael Borrelli (University of Arkansas for Medical Sciences, AR, USA). NT2 cells were cultured in DMEM/F12 (Dulbecco's Modified Eagle Medium) supplemented with 10% (v/v) FCS (Fetal Calf Serum) and antibiotic/antimycotic solution (1%) (Sigma-Aldrich, MO, USA).
(§2) To measure the clonogenic ability, cells were plated (500 cells per well) in 6-well dishes. In the case of HAP-1 cells, cells were treated the following day after plating, with temozolomide (TMZ) (0, 1, 5, 50, 125 and 250 μM) alone or in combination with UAMS-48 (0.1 and 0.5 μM) for 1 hour. In the case of T98G and NT2 cells, treatment was done on the following day of plating, with increasing concentrations of TMZ alone or in combination with UAMS-48 (50 nM) for 3 hrs. T98G and NT2 cells were treated with increasing concentrations of UAMS-48 for 3 hrs. After treatment, cells were cultured in fresh IMDM supplemented with 10% FBS for 10 days. The colonies were gently washed with 1×PBS, fixed with 3.7% (v/v) formaldehyde for 20 mins at RT and stained with crystal violet solution (Sigma-Aldrich, MO, USA) for 30 mins at RT.
(§3) The fixed crystal-violet stained colonies in each 6-well plate were examined under an EVOS XL Core imaging system (Thermo Fisher Scientific) under bright-field, and the colonies were inspected manually. […] Color images of each 6-well plate were captured and opened for processing using the Fiji version of the freely available software ImageJ. Setting the appropriate threshold for counting colonies for each cell type, corresponding to the respective radii calculated previously, the colonies were counted using the Colony Area plugin of ImageJ. Manual counting was performed on a few wells picked randomly, and the colony count so obtained was tallied with the number obtained using ImageJ, to ensure they matched reasonably. All experiments were performed in triplicate, and the colony number for each well was expressed as the mean (±standard deviation). The results were plotted to generate a dose response curve for TMZ treatment using the software Graphpad Prism, where the mean number of colonies was plotted along the Y-axis, and the TMZ concentration along the X-axis. Bar charts comparing the mean number of colonies as a function of the various conditions were also plotted for both cell types. Combination index values were calculated using the Chou-Talalay method (Chou 2010).

Test [2] has as its system hpol κ-proficient HAP-1 cells. The experiment in a line: Clonogenic survival assay. The test is classed as cell-based, human. The settings on record: 250 μM TMZ alone. Here is the method:
as §1, §2, §3

This note sets out measurements from patent US12685733B2, “Indole molecules and use thereof in the inhibition of DNA polymerases” (BioVentures, LLC, priority 2019, dated 2026).

As usually defined, the IC50 is the point on the concentration scale where inhibition reaches its midpoint. High values mean weaker potency, low ones greater potency. `Cc1c(/C=N/NC(=N)N)c2ccccc2n1C(=O)c1cccc2ccccc12` [IAG-1]: on hpol κ, the IC50 came out at 84.6 µM and the activity at 40 µM was 105%.
With `COc1ccc2c(c1)c(/C=N/NC(=N)N)cn2C(=O)c1cccc2ccccc12` [IAG-2], at hpol κ, the IC50 was determined as 68.6 µM and the activity at 40 µM came to 104%.
Taken in the same sequence, the figures for `N=C(N)N/N=C/c1cn(Cc2ccc3ccccc3c2)c2ccccc12` [IAG-4] were 48.3 µM and 95%.
With `COc1ccc2c(c1)c(/C=N/NC(=N)N)cn2Cc1ccc2ccccc2c1` [IAG-5], on hpol κ, the IC50 was 43.7 µM and the activity at 40 µM was determined as 94%.
For `N=C(N)N/N=C/c1cn(Cc2cccc3ccccc23)c2ccc(Cl)cc12` [IAG-7], at hpol κ, the IC50 came out at 24.2 µM and the activity at 40 µM is 64%.
For the molecule `N=C(N)N/N=C/c1cn(Cc2cccc3ccccc23)c2ccc(Br)cc12` [IAG-8], at hpol κ, the IC50 was in the range of 7.2 to 24.2 µM and the activity at 40 µM turned out to be 57%.
As for `N=C(N)N/N=C/c1cn(C(=O)c2ccc3ccccc3c2)c2ccc(Cl)cc12` [IAG-9], at hpol κ, the IC50 stood at 18.8 µM and the activity at 40 µM amounted to 30%.
With `O=C1NC(=S)NC(=O)C1=Cc1cn(Cc2ccc3ccccc3c2)c2ccccc12` [IBA-1], the activity at 40 µM on hpol κ is 116%.
As for `COc1ccc2c(c1)c(C=C1C(=O)N(C)C(=O)N(C)C1=O)c(C)n2Cc1cccc2ccccc12` [IBA-2], the activity at 40 µM on hpol κ is 114%.
As for `Cc1c(C=C2C(=O)N(C)C(=O)N(C)C2=O)c2cc(Cl)ccc2n1Cc1cccc2ccccc12` [IBA-3], the activity at 40 µM on hpol κ worked out at 111%.
In the case of `COc1ccc(Cn2cc(C=C3C(=O)NC(=O)NC3=O)c3cccnc32)cc1` [IBA-4], the activity at 40 µM on hpol κ is 110%.
Take `O=C1NC(=S)NC(=O)C1=Cc1cn(Cc2cccc3ccccc23)c2ncc(Cl)cc12` [IBA-5]: on hpol κ, the activity at 40 µM was determined as 109%.
Take `O=C1NC(=S)NC(=O)C1=Cc1cn(Cc2cccc3ccccc23)c2ccc(Cl)cc12` [IBA-6]: at hpol κ, the activity at 40 µM came out at 108%.
For the molecule `Cc1c(C=C2C(=O)NC(=O)NC2=O)c2ccccc2n1C(=O)c1cccc2ccccc12` [IBA-7], the activity at 40 µM at hpol κ turned out to be 107%.
Still for that read-out and setting: in the case of `O=C1NC(=O)C(=Cc2cn(Cc3cccc4ccccc34)c3ncc(Cl)cc23)C(=O)N1` [IBA-8] it was 103%.
On the same count and under the same terms, in the case of `O=C1NC(=O)C(=Cc2cn(Cc3cccc(C(F)(F)F)c3)c3ncccc23)C(=O)N1` [IBA-9] it was 103%; in that of `N#Cc1ccc(Cn2cc(C=C3C(=O)NC(=O)NC3=O)c3ccccc32)cc1` [IBA-10], 102%.
For `Cc1c(C=C2C(=O)NC(=S)NC2=O)c2cc(Cl)ccc2n1Cc1cccc2ccccc12` [IBA-11], on hpol κ, the activity at 40 µM is 99.1%.
In the case of `Cc1c(C=C2C(=O)NC(=O)NC2=O)c2cc(Cl)ccc2n1Cc1cccc2ccccc12` [IBA-12], the activity at 40 µM at hpol κ came out at 96.6%.
As for `O=C1NC(=S)NC(=O)C1=Cc1cn(Cc2cccc(C(F)(F)F)c2)c2ncccc12` [IBA-13], the activity at 40 µM on hpol κ amounted to 96.6%.
In the case of `Cc1c(C=C2C(=O)NC(=O)NC2=O)c2ccccc2n1C(=O)c1ccc2ccccc2c1` [IBA-14], on hpol κ, the activity at 40 µM stood at 95.7%.
The same measure, in the same setting: the result for `COc1ccc(Cn2cc(C=C3C(=O)NC(=S)NC3=O)c3cccnc32)cc1` [IBA-15] reads 95.1%.
Consider `N#Cc1ccc(Cn2cc(C=C3C(=O)NC(=S)NC3=O)c3cccnc32)cc1` [IBA-16], for which, on hpol κ, the activity at 40 µM came to 94.5%.
Turning to `COc1ccc2c(c1)c(C=C1C(=O)NC(=S)NC1=O)cn2C(=O)c1cccc2ccccc12` [IBA-17], at hpol κ, the activity at 40 µM is 93.8%.
In the case of `Cc1c(C=C2C(=O)NC(=S)NC2=O)c2ccccc2n1C(=O)c1ccc2ccccc2c1` [IBA-18], on hpol κ, the activity at 40 µM is 93.5%.
For the molecule `Cc1c(C=C2C(=O)NC(=O)NC2=O)c2ccccc2n1Cc1ccc(Br)cc1` [IBA-19], on hpol κ, the activity at 40 µM was found to be 93.3%.
Regarding `COc1ccc2c(c1)c(C=C1C(=O)NC(=S)NC1=O)cn2C(=O)c1ccc2ccccc2c1` [IBA-20], the activity at 40 µM at hpol κ came to 92.9%.
Still for that read-out and setting: in the case of `O=C1NC(=O)C(=Cc2cn(Cc3ccc4ccccc4c3)c3ncc(Cl)cc23)C(=O)N1` [IBA-21] it was 92.2%; in that of `O=C1NC(=S)NC(=O)C1=Cc1cn(Cc2ccc(Br)cc2)c2ccc(COCCN3CCOCC3)cc12` [IBA-22], 91.1%.
Regarding `COc1ccc2c(c1)c(C=C1C(=O)NC(=S)NC1=O)c(C)n2Cc1cccc2ccccc12` [IBA-23], the activity at 40 µM at hpol κ was 91%.
Take `N#Cc1ccc(Cn2cc(C=C3C(=O)NC(=O)NC3=O)c3cccnc32)cc1` [IBA-24]: the activity at 40 µM at hpol κ is 88.8%.
Regarding `O=C1NC(=S)NC(=O)C1=Cc1cn(C(=O)c2ccc3ccccc3c2)c2ccc(Cl)cc12` [IBA-25], the activity at 40 µM on hpol κ was 87.6%.
Still for that read-out and setting: in the case of `Cc1c(C=C2C(=O)NC(=S)NC2=O)c2ccccc2n1C(=O)c1cccc2ccccc12` [IBA-26] it was 86.4%; in that of `O=C1NC(=S)NC(=O)C1=Cc1cn(C(=O)c2cccc3ccccc23)c2ccc(Cl)cc12` [IBA-27], 85.8%; in that of `O=C1NC(=S)NC(=O)C1=Cc1cn(Cc2ccc3ccccc3c2)c2ncc(Cl)cc12` [IBA-28], 84.4%.
In the case of `O=C1NC(=S)NC(=O)C1=Cc1cn(C(=O)c2cccc3ccccc23)c2ccccc12` [IBA-29], on hpol κ, the activity at 40 µM was 83.3%.
Turning to `O=C1NC(=S)NC(=O)C1=Cc1cn(C(=O)c2ccc3ccccc3c2)c2ccccc12` [IBA-30], the activity at 40 µM on hpol κ came out at 81.4%.
On to `O=C1NC(=O)C(=Cc2cn(Cc3ccc4ccccc4c3)c3ccc(Cl)cc23)C(=O)N1` [IBA-31], for which the activity at 40 µM at hpol κ was found to be 67.6%.
Take `O=C1NC(=S)NC(=O)C1=Cc1cn(Cc2ccc3ccccc3c2)c2ccc(Cl)cc12` [IBA-32]: at hpol κ, the activity at 40 µM was determined as 56.5%. Further, on hpol κ (steady-state kinetics with varying inhibitor concentration), the “turnover number (kcat), hpol κ-catalyzed dTTP insertion” value was “it was the kcat and not the KdNTP that was altered”.
Consider `O=C1NC(=O)C(=Cc2cn(Cc3ccc4ccccc4c3)c3ccccc23)C(=O)N1` [IBA-33], for which, at hpol κ, the activity at 40 µM came out at 17.9%.
As to `O=C1NC(=S)NC(=O)C1=Cc1cn(Cc2cccc3ccccc23)c2ccc(Br)cc12` [IBA-34], the activity at 40 µM at hpol κ was determined as 3.7%.
For the molecule `Cn1nnc2c(C(N)=O)ncn2c1=O` [TMZ, temozolomide, reference compound], the “colonies formed relative to untreated cells” value in test [1] was “less than 50%”. The “colonies formed relative to control” value in test [2] is ~ 75%.
